Laboratory results published in PubChem BioAssay AID1918948 (Molecular Pharmacology Branch, DTP, NCI, 2023).

System: K-562 leukemia growth, % test/control
Assay: Anticancer human tumor K-562 cell line growth inhibition;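 also: spheroids exposed to compounds for 7 days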;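 as to viability, T/C: 100% = DMSO vehicle wells and lower values mean fewer viable cells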
Details: spheroids with HUVEC and MSC; for IC50: curve of first compound; for viability, T/C: stronger effect = lower value
Procedure, shortened: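 Drug combinations with the LSD1 inhibitor iadademstat tested on tumor cells co-cultured as spheroids with endothelial cells and mesenchymal stem cells. Concentrations descended in half-log increments from clinical Cmax or 10 microM.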

## CC(C)c1c(-c2ccccc2)nc2c(C#N)c[nH]n2c1=O + NC1CCC(NC2CC2c2ccccc2)CC1
Second compound 0.1 µM
  IC50: > 10 µM
Second compound 0.316 µM
  IC50: > 10 µM
Second compound 1 µM
  IC50: > 10 µM
Second compound 3.16 µM
  IC50: > 10 µM
Second compound 10 µM
  IC50: > 10 µM
Second compound 0.1 µM, first compound 0.0316 µM
  viability, T/C: 98.7%
Second compound 0.1 µM, first compound 0.1 µM
  viability, T/C: 95.2%
Second compound 0.1 µM, first compound 0.316 µM
  viability, T/C: 96.6%
Second compound 0.1 µM, first compound 1 µM
  viability, T/C: 100%
Second compound 0.1 µM, first compound 3.16 µM
  viability, T/C: 99.1%
Second compound 0.1 µM, first compound 10 µM
  viability, T/C: 98.9%
Second compound 0.316 µM, first compound 0.0316 µM
  viability, T/C: 100%
Second compound 0.316 µM, first compound 0.1 µM
  viability, T/C: 101%
Second compound 0.316 µM, first compound 0.316 µM
  viability, T/C: 99.8%
Second compound 0.316 µM, first compound 1 µM
  viability, T/C: 98.6%
Second compound 0.316 µM, first compound 3.16 µM
  viability, T/C: 99.6%
Second compound 0.316 µM, first compound 10 µM
  viability, T/C: 98.9%
Second compound 1 µM, first compound 0.0316 µM
  viability, T/C: 102%
Second compound 1 µM, first compound 0.1 µM
  viability, T/C: 102%
Second compound 1 µM, first compound 0.316 µM
  viability, T/C: 100%
Second compound 1 µM, first compound 1 µM
  viability, T/C: 99.4%
Second compound 1 µM, first compound 3.16 µM
  viability, T/C: 100%
Second compound 1 µM, first compound 10 µM
  viability, T/C: 101%
Second compound 3.16 µM, first compound 0.0316 µM
  viability, T/C: 102%
Second compound 3.16 µM, first compound 0.1 µM
  viability, T/C: 102%
Second compound 3.16 µM, first compound 0.316 µM
  viability, T/C: 99.7%
Second compound 3.16 µM, first compound 1 µM
  viability, T/C: 102%
Second compound 3.16 µM, first compound 3.16 µM
  viability, T/C: 103%
Second compound 3.16 µM, first compound 10 µM
  viability, T/C: 100%
Second compound 10 µM, first compound 0.0316 µM
  viability, T/C: 95.6%
Second compound 10 µM, first compound 0.1 µM
  viability, T/C: 98.7%
Second compound 10 µM, first compound 0.316 µM
  viability, T/C: 96.8%
Second compound 10 µM, first compound 1 µM
  viability, T/C: 97%
Second compound 10 µM, first compound 3.16 µM
  viability, T/C: 97.9%
Second compound 10 µM, first compound 10 µM
  viability, T/C: 98.4%
